Values joined by “and” are separate entries in the source; they are usually repeats but may differ in a detail not shown here. Equal entries are not always repeated. Non-standard residues stand in square brackets, D forms with d. Residues, ends and D or L forms follow the SMILES beside them. *: point of attachment. Biotin = O=C1N[C@H]2[C@H](CS[C@H]2CCCCC(=O)*)N1
What was measured:
MDBK cells = assay: Cellular oxidative stress in serum-starved cells (CM-H2DCFDA); format: cell-based, bovine; conditions: 1 μM
Experimental: MDBK cells incubated in serum free media for 5-7 days in the presence or absence of 1 μM of biotin-HDAP2. At the end of the incubation period, 100 nM CM-H2DCFDA (oxidative stress marker) was added to the cells and incubated for 30 minutes. Then, media was removed and cells were fixed in 4% PFA. Cells were then visualized using a fluorescent microscope (Nikon Eclipse-ci-SRS). Experiments were conducted 5 times in triplicate for each experimental condition.
To measure the effects of biotin-HDAP2 on the mitochondrial potential and cellular oxidative stress, cells were cultured in DMEM/F12 without fetal bovine serum (FSB) in the presence or absence of biotin-HDAP2 (1 μM). […]
Unless otherwise noted, data for all tissue culture experiments were collected from three independent trials, with each experiment done in triplicate. […] Photooxidation of the indicator dyes were minimized by using single exposures to the fluorescence for each field imaged. Fluorescence intensity was analyzed using ImageJ (NIH), and MTR and CM-H2DCFDA fluorescence were normalized to Hoechst fluorescence to account for differences in cell number in each field. […] All data are expressed as means±SEM.

[1] = tested on: retinal ganglion cells (RGCs); assay: Retinal ganglion cell survival in retinal explants; conditions: Brn3a labeling
Text: FIG. 8 illustrates retinal explants labeled with Brn3a (green) to label retinal ganglion cells (RGCs), ToPro3 to label all cell nuclei (red) and ChAT to label displaced amacrine cells (blue).

`N=C(N)NCCC[C@@H](NC(=O)[C@H](Cc1ccccc1)NC(=O)[C@H](Cc1ccccc1)NC(=O)[C@@H](CCCNC(=N)N)NC(=O)CCCC[C@@H]1SC[C@@H]2NC(=O)N[C@@H]21)C(N)=O` [biotin-HDAP2, Biotin-dArg-Phe-Phe-dArg-NH2] (Biotin-[dR]FF[dR]-NH2) was tested. Which “oxidative stress in starved cells” value (MDBK cells; serum free 5-7 days, 100 nM CM-H2DCFDA) did it give?
Its value is “prevented oxidative stress in starved cells”.

What about the “reduction in CM-H2DCFDA fluorescence compared to control” value (MDBK cells; serum-free) of the same compound?
Its value is > 80% and 80%.

And the “survival of retinal ganglion cells in retinal explants” value [1]?
The value was “promoted survival of retinal ganglion cells in retinal explants”.

— patent US20250276996A1, “CATIONICALLY-ENFRAMED HIGH DENSITY AROMATIC PEPTIDES” (Research Foundation of the City University of New York, priority 2022, published 2025)
